Where two headings read alike, the source gives them in different places. Starred links: 1 amine or outer side, 2 acyl side, 3 side chain; linkers in the order of their positions; H or OH if unused. Non-standard residues stand in square brackets, D forms with d. Residues, ends and D or L forms follow the SMILES beside them. Groups on a side chain read outwards from the residue. *: point of attachment. C20 diacid = O=C(O)CCCCCCCCCCCCCCCCCCC(=O)*; γGlu = O=C(O)[C@H](CCC(=O)[*:2])N[*:1]; Hyp = O=C(O)[C@@H]1C[C@@H](O)CN1; Nle = CCCC[C@H](N)C(=O)O; AEEA = NCCOCCOCC(=O)O
Key:
hCRHR1 = molecular target: T1, hCRHR1 (Homo sapiens, UniProt P34998); experiment: HTRF cAMP assay, determination of hCRHR1 potency (peptide libraries 5 conc., purified peptides 11 conc.); assay type: cell-based
T1 sequence (P34998 24-415): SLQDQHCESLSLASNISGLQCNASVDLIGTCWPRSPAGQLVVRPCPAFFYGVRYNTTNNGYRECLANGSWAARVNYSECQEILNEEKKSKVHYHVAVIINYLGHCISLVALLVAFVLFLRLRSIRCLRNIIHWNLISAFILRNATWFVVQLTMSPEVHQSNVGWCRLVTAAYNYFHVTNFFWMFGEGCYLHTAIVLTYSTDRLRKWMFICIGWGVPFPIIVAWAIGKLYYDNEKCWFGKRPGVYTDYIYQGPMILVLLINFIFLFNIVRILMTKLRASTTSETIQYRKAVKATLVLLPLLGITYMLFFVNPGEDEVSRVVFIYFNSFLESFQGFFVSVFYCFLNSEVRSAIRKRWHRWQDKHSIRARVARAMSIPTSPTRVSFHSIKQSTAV
Outline: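 CHO-K1 cells stably expressing human CRHR1, thawed from frozen stocks just before use, were stimulated in suspension with agonist peptides. cAMP was measured by HTRF competitive immunoassay (cryptate anti-cAMP antibody vs d2-cAMP).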

hCRHR2 = molecular target: T2, hCRHR2 (Homo sapiens, UniProt Q13324); experiment: HTRF cAMP assay, determination of hCRHR2 potency (peptide libraries 5 conc., purified peptides 11 conc.); assay type: cell-based
T2 sequence (Q13324 1-411): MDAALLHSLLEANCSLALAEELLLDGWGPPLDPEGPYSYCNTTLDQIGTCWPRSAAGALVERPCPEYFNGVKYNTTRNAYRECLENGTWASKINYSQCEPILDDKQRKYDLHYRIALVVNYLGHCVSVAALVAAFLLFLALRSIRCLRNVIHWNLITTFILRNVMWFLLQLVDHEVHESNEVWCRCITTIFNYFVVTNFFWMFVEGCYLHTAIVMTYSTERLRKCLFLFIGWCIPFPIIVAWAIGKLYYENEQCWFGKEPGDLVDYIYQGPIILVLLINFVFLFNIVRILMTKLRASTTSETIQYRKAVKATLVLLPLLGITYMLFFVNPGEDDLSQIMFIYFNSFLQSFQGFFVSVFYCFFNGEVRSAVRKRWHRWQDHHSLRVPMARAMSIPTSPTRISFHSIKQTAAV
Outline: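 Potency was read as cAMP accumulation in a stable CHO-K1 line expressing human CRHR2, used in suspension right after thawing. Detection relied on energy transfer from antibody-bound cryptate to d2-cAMP.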

[1] = library peptides, matched molecular pairs L vs Nle in position X^38, read-out: Potency hCRHR1 pEC50 (converted)
[2] = library peptides, matched molecular pairs L vs Nle in position X^38, read-out: Potency hCRHR2 pEC50 (converted)
[3] = Table 3, matched molecular pairs X^38 L vs Nle, peptide library of Example 4, read-out: hCRHR1 pEC50 (converted)
[4] = Table 3, matched molecular pairs X^38 L vs Nle, peptide library of Example 4, read-out: hCRHR2 pEC50 (converted)

Row | EC50 (hCRHR1; [1]) [nM] | EC50 (hCRHR2; [2]) [nM] | EC50 (hCRHR1; [3]) [nM] | EC50 (hCRHR2; [4]) [nM] | SMILES | further results
1 | 20000 | 1 |  |  | CC[C@H](C)[C@H](N)C(=O)N[C@H](C(=O)N[C@@H](CC(C)C)C(=O)N[C@@H](CO)C(=O)N[C@@H](CC(C)C)C(=O)N[C@@H](CC(=O)O)C(=O)N[C@H](C(=O)N1CCC[C@H]1C(=O)N[C@H](C(=O)NCC(=O)N[C@@H](CC(C)C)C(=O)N[C@@H](CC(C)C)C(=O)N[C@@H](CCC(N)=O)C(=O)N[C@H](C(=O)N[C@@H](CC(C)C)C(=O)N[C@@H](CC(C)C)C(=O)N[C@@H](CCC(=O)O)C(=O)N[C@@H](CCC(N)=O)C(=O)N[C@@H](C)C(=O)N[C@@H](CCCNC(=N)N)C(=O)N[C@@H](C)C(=O)N[C@@H](CCCNC(=N)N)C(=O)N[C@H](C(=O)N[C@@H](C)C(=O)N[C@@H](CCCNC(=N)N)C(=O)N[C@@H](CCC(=O)O)C(=O)N[C@@H](CCC(N)=O)C(=O)N[C@@H](C)C(=O)N[C@@H](CCCCNC(=O)COCCOCCNC(=O)COCCOCCNC(=O)CC[C@H](NC(=O)CC[C@H](NC(=O)CCCCCCCCCCCCCCCCCCC(=O)O)C(=O)O)C(=O)O)C(=O)N[C@H](C(=O)N[C@@H](CC(N)=O)C(=O)N[C@@H](C)C(=O)N[C@@H](CCC(=O)O)C(=O)N[C@H](C(=O)N[C@@H](CC(C)C)C(=O)N[C@@H](C)C(=O)N[C@@H](CCC(=O)O)C(=O)N[C@H](C(N)=O)C(C)C)[C@@H](C)CC)[C@@H](C)O)C(C)C)[C@@H](C)CC)[C@@H](C)CC)C(C)C)C(C)C [compound 90] (H-IVLSLDVPIGLLQILLEQARARVAREQAK([AEEA-AEEA-γGlu-γGlu-C20 diacid])TNAEILAEV-NH2) | 
2 | 25.1 | 1 |  |  | CC[C@H](C)[C@H](N)C(=O)N[C@H](C(=O)N[C@@H](CC(C)C)C(=O)N[C@@H](CO)C(=O)N[C@@H](CC(C)C)C(=O)N[C@@H](CC(=O)O)C(=O)N[C@H](C(=O)N1C[C@H](O)C[C@H]1C(=O)N[C@H](C(=O)NCC(=O)N[C@@H](CC(C)C)C(=O)N[C@@H](CC(C)C)C(=O)N[C@@H](CCC(N)=O)C(=O)N[C@H](C(=O)N[C@@H](CC(C)C)C(=O)N[C@@H](CC(C)C)C(=O)N[C@@H](CCC(=O)O)C(=O)N[C@@H](CCC(N)=O)C(=O)N[C@@H](C)C(=O)N[C@@H](CCCNC(=N)N)C(=O)N[C@@H](C)C(=O)N[C@@H](CCCNC(=N)N)C(=O)N[C@H](C(=O)N[C@@H](C)C(=O)N[C@@H](CCCNC(=N)N)C(=O)N[C@@H](CCC(=O)O)C(=O)N[C@@H](CCC(N)=O)C(=O)N[C@@H](C)C(=O)N[C@@H](CCCCNC(=O)COCCOCCNC(=O)COCCOCCNC(=O)CC[C@H](NC(=O)CC[C@H](NC(=O)CCCCCCCCCCCCCCCCCCC(=O)O)C(=O)O)C(=O)O)C(=O)N[C@H](C(=O)N[C@@H](CC(N)=O)C(=O)N[C@@H](C)C(=O)N[C@@H](CCC(=O)O)C(=O)N[C@H](C(=O)N[C@@H](CC(C)C)C(=O)N[C@@H](C)C(=O)N[C@@H](CCC(=O)O)C(=O)N[C@H](C(N)=O)C(C)C)[C@@H](C)CC)[C@@H](C)O)C(C)C)[C@@H](C)CC)[C@@H](C)CC)C(C)C)C(C)C [compound 84] (H-IVLSLDV[Hyp]IGLLQILLEQARARVAREQAK([AEEA-AEEA-γGlu-γGlu-C20 diacid])TNAEILAEV-NH2) | 
3 |  |  |  |  | CC[C@H](C)[C@H](N)C(=O)N[C@H](C(=O)N[C@@H](CC(C)C)C(=O)N[C@@H](CO)C(=O)N[C@@H](CC(C)C)C(=O)N[C@@H](CC(=O)O)C(=O)N[C@H](C(=O)N1CCC[C@H]1C(=O)N[C@H](C(=O)NCC(=O)N[C@@H](CC(C)C)C(=O)N[C@@H](CC(C)C)C(=O)N[C@@H](CCC(N)=O)C(=O)N[C@H](C(=O)N[C@@H](CC(C)C)C(=O)N[C@@H](CC(C)C)C(=O)N[C@@H](CCC(=O)O)C(=O)N[C@@H](CCC(N)=O)C(=O)N[C@@H](C)C(=O)N[C@@H](CCCNC(=N)N)C(=O)N[C@@H](C)C(=O)N[C@@H](CCCNC(=N)N)C(=O)N[C@@H](C)C(=O)N[C@@H](C)C(=O)N[C@@H](CCCNC(=N)N)C(=O)N[C@@H](CCC(=O)O)C(=O)N[C@@H](CCCNC(=N)N)C(=O)N[C@@H](C)C(=O)N[C@@H](CCCCNC(=O)COCCOCCNC(=O)COCCOCCNC(=O)CC[C@H](NC(=O)CC[C@H](NC(=O)CCCCCCCCCCCCCCCCCCC(=O)O)C(=O)O)C(=O)O)C(=O)N[C@H](C(=O)N[C@@H](CC(N)=O)C(=O)N[C@@H](C)C(=O)N[C@@H](CCC(=O)O)C(=O)N[C@H](C(=O)N[C@@H](CC(C)C)C(=O)N[C@@H](C)C(=O)N[C@@H](CCC(=O)O)C(=O)N[C@H](C(N)=O)C(C)C)[C@@H](C)CC)[C@@H](C)O)[C@@H](C)CC)[C@@H](C)CC)C(C)C)C(C)C [compound 66] (H-IVLSLDVPIGLLQILLEQARARAARERAK([AEEA-AEEA-γGlu-γGlu-C20 diacid])TNAEILAEV-NH2) | EC50 (hCRHR1): 50100 nM; EC50 (hCRHR2): 0.316 nM
4 |  |  | 79400 | 0.501 | CC[C@H](C)[C@H](N)C(=O)N[C@H](C(=O)N[C@@H](CC(C)C)C(=O)N[C@@H](CO)C(=O)N[C@@H](CC(C)C)C(=O)N[C@@H](CC(=O)O)C(=O)N[C@H](C(=O)N1CCC[C@H]1C(=O)N[C@H](C(=O)NCC(=O)N[C@@H](CC(C)C)C(=O)N[C@@H](CC(C)C)C(=O)N[C@@H](CCC(N)=O)C(=O)N[C@H](C(=O)N[C@@H](CC(C)C)C(=O)N[C@@H](CC(C)C)C(=O)N[C@@H](CCC(=O)O)C(=O)N[C@@H](CCC(N)=O)C(=O)N[C@@H](C)C(=O)N[C@@H](CCCNC(=N)N)C(=O)N[C@@H](C)C(=O)N[C@@H](CCCNC(=N)N)C(=O)N[C@@H](CO)C(=O)N[C@@H](C)C(=O)N[C@@H](CCCNC(=N)N)C(=O)N[C@@H](CCC(=O)O)C(=O)N[C@@H](CCC(N)=O)C(=O)N[C@@H](C)C(=O)N[C@@H](CCCCNC(=O)COCCOCCNC(=O)COCCOCCNC(=O)CC[C@H](NC(=O)CC[C@H](NC(=O)CCCCCCCCCCCCCCCCCCC(=O)O)C(=O)O)C(=O)O)C(=O)N[C@H](C(=O)N[C@@H](CC(N)=O)C(=O)N[C@@H](C)C(=O)N[C@@H](CCC(=O)O)C(=O)N[C@H](C(=O)N[C@@H](CC(C)C)C(=O)N[C@@H](C)C(=O)N[C@@H](CCC(=O)O)C(=O)N[C@H](C(N)=O)[C@@H](C)CC)[C@@H](C)CC)[C@@H](C)O)[C@@H](C)CC)[C@@H](C)CC)C(C)C)C(C)C [SEQ ID NO: 35] (H-IVLSLDVPIGLLQILLEQARARSAREQAK([AEEA-AEEA-γGlu-γGlu-C20 diacid])TNAEILAEI-NH2) | 
5 |  |  | 5010 | 0.158 | CCCC[C@H](NC(=O)[C@@H](NC(=O)[C@H](CCC(=O)O)NC(=O)[C@H](C)NC(=O)[C@H](CC(N)=O)NC(=O)[C@@H](NC(=O)[C@H](CCCCNC(=O)COCCOCCNC(=O)COCCOCCNC(=O)CC[C@H](NC(=O)CC[C@H](NC(=O)CCCCCCCCCCCCCCCCCCC(=O)O)C(=O)O)C(=O)O)NC(=O)[C@H](C)NC(=O)[C@H](CCC(N)=O)NC(=O)[C@H](CCC(=O)O)NC(=O)[C@H](CCCNC(=N)N)NC(=O)[C@H](C)NC(=O)[C@H](CO)NC(=O)[C@H](CCCNC(=N)N)NC(=O)[C@H](C)NC(=O)[C@H](CCCNC(=N)N)NC(=O)[C@H](C)NC(=O)[C@H](CCC(N)=O)NC(=O)[C@H](CCC(=O)O)NC(=O)[C@H](CC(C)C)NC(=O)[C@H](CC(C)C)NC(=O)[C@@H](NC(=O)[C@H](CCC(N)=O)NC(=O)[C@H](CC(C)C)NC(=O)[C@H](CC(C)C)NC(=O)CNC(=O)[C@@H](NC(=O)[C@@H]1CCCN1C(=O)[C@@H](NC(=O)[C@H](CC(=O)O)NC(=O)[C@H](CC(C)C)NC(=O)[C@H](CO)NC(=O)[C@H](CC(C)C)NC(=O)[C@@H](NC(=O)[C@@H](N)[C@@H](C)CC)C(C)C)C(C)C)[C@@H](C)CC)[C@@H](C)CC)[C@@H](C)O)[C@@H](C)CC)C(=O)N[C@@H](C)C(=O)N[C@@H](CCC(=O)O)C(=O)N[C@H](C(N)=O)[C@@H](C)CC [SEQ ID NO: 36] (H-IVLSLDVPIGLLQILLEQARARSAREQAK([AEEA-AEEA-γGlu-γGlu-C20 diacid])TNAEI[Nle]AEI-NH2) | 
